Reference: patent publication US10219516B2, “Molecules having pesticidal utility, and intermediates, compositions, and processes, related thereto” (priority 2015, dated 2019)
Like-named read-outs stand apart in the source and are kept apart here.

Tests used:
[1] = test system: Cabbage Looper (Trichoplusia ni, TRIPNI); assay: Bioassay on Cabbage Looper (CL), 128-well diet tray assay; type: in vivo; conditions: Trichoplusia ni
Method in brief: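 Diet-incorporation-free surface assay: 50 μg/cm^2 compound in acetone-water (90:10), dried on diet; 1–5 2nd-instar larvae/well; 8 wells; vented cover; 25° C., 14:10 L:D, 5–7 d; % mortality averaged over wells.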

[2] = test system: Beet Armyworm (Spodoptera exigua, LAPHEG); assay: Bioassay on Beet Armyworm (BAW), 128-well diet tray assay; type: in vivo
Method in brief: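 Diet tray, 8 wells/compound; 50 μg/cm^2 applied to diet surface (90:10 acetone-water), dried. 1–5 L2 larvae/well; 25° C., 14:10 L:D, 5–7 d. Read-out: % mortality, mean of 8 wells.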

[3] = Cabbage Looper, 128-well diet tray assay, read-out: CL rating
[4] = Beet Armyworm, 128-well diet tray assay, read-out: BAW rating
[5] = Species CL (Cabbage Looper), read-out: CL (Biological Results, rating)
[6] = Species BAW (Beet Armyworm), read-out: BAW (Biological Results, rating)

SMILES | pest or weed control at 50 µg/cm2 [1, 3] | pest or weed control at 50 µg/cm2 [2, 4] | pest or weed control at 50 µg/cm2 [1, 5] | pest or weed control at 50 µg/cm2 [2, 6]
N#CSc1ccc(NC(=O)c2cc(NC(=O)[C@H]3[C@H](c4cc(Cl)cc(Cl)c4)C3(Cl)Cl)ccc2Cl)cc1 (relative stereo) [PF45, trans-2-Chloro-5-(2,2-dichloro-3-(3,5-dichlorophenyl)cyclopropane-1-carboxamido)-N-(4-thiocyanatophenyl)benzamide] | 50 to 100% | 50 to 100% | – | –
Cc1cc(F)ccc1NC(=O)c1cc(NC(=O)[C@H]2[C@H](c3cc(Cl)c(Cl)c(Cl)c3)C2(Cl)Cl)ccc1Cl (relative stereo) [PF47, trans-2-Chloro-5-(2,2-dichloro-3-(3,4,5-trichlorophenyl)cyclopropane-1-carboxamido)-N-(4-fluoro-2-methylphenyl)benzamide] | 50 to 100% | 50 to 100% | – | –
Cc1c(F)ccc(NC(=O)c2cc(NC(=O)[C@H]3[C@H](c4cc(Cl)cc(Cl)c4)C3(Cl)Cl)ccc2Cl)c1F (relative stereo) [PF55, trans-2-Chloro-5-(2,2-dichloro-3-(3,5-dichlorophenyl)cyclopropane-1-carboxamido)-N-(2,4-difluoro-3-methylphenyl)benzamide] | 50 to 100% | 50 to 100% | – | –
Cc1cc(C(F)(C(F)(F)F)C(F)(F)F)cc(C)c1NC(=O)c1cc(NC(=O)[C@H]2[C@H](c3cc(Cl)cc(Cl)c3)C2(Cl)Cl)ccc1Cl (relative stereo) [PF60, trans-2-Chloro-5-(2,2-dichloro-3-(3,5-dichlorophenyl)cyclopropane-1-carboxamido)-N-(2,6-dimethyl-4-(perfluoropropan-2-yl)phenyl)benzamide] | 50 to 100% | 50 to 100% | – | –
COc1ccc([C@H]2[C@H](C(=O)Nc3ccc(Cl)c(C(=O)Nc4ccc(F)cc4)c3)C2(Cl)Cl)cc1 (relative stereo) [PF65, trans-2-Chloro-5-(2,2-dichloro-3-(4-methoxyphenyl)cyclopropane-1-carboxamido)-N-(4-fluorophenyl)benzamide] | 50 to 100% | 50 to 100% | – | –
O=C(Nc1ccc(F)c(C(F)(F)F)c1)c1cc(NC(=O)[C@H]2[C@H](c3cc(Cl)cc(Cl)c3)C2(Cl)Cl)ccc1Cl (relative stereo) [PF70, trans-2-Chloro-5-(2,2-dichloro-3-(3,5-dichlorophenyl)cyclopropane-1-carboxamido)-N-(4-fluoro-3-(trifluoromethyl)phenyl)benzamide] | 50 to 100% | 50 to 100% | – | –
Cc1cc([N+](=O)[O-])ccc1NC(=O)c1cc(NC(=O)[C@H]2[C@H](c3cc(Cl)cc(Cl)c3)C2(Cl)Cl)ccc1Cl (relative stereo) [PF75, trans-2-Chloro-5-(2,2-dichloro-3-(3,5-dichlorophenyl)cyclopropane-1-carboxamido)-N-(2-methyl-4-nitrophenyl)benzamide] | 50 to 100% | 50 to 100% | – | –
O=C(Nc1ccc(NC(=O)c2cc(NC(=O)[C@H]3[C@H](c4cc(Cl)cc(Cl)c4)C3(Cl)Cl)ccc2Cl)cc1)c1ccccc1 (relative stereo) [PF104, trans-N-(4-Benzamidophenyl)-2-chloro-5-(2,2-dichloro-3-(3,5-dichlorophenyl)cyclopropane-1-carboxamido)benzamide] | 50 to 100% | 50 to 100% | – | –
N#CC1(C(=O)Nc2ccc(NC(=O)c3cc(NC(=O)[C@H]4[C@H](c5cc(Cl)cc(Cl)c5)C4(Cl)Cl)ccc3Cl)cc2)CC1 (relative stereo) [PF109, trans-2-Chloro-N-(4-(1-cyanocyclopropane-1-carboxamido)phenyl)-5-(2,2-dichloro-3-(3,5-dichlorophenyl)cyclopropane-1-carboxamido)benzamide] | 50 to 100% | 50 to 100% | – | –
O=C(Nc1nc(C(F)(F)F)cs1)c1cc(NC(=O)[C@H]2[C@H](c3cc(Cl)cc(Cl)c3)C2(Cl)Cl)ccc1Cl (relative stereo) [PF134, trans-2-Chloro-5-(2,2-dichloro-3-(3,5-dichlorophenyl)cyclopropane-1-carboxamido)-N-(4-(trifluoromethyl)thiazol-2-yl)benzamide] | 50 to 100% | 50 to 100% | – | –
Cc1ccc(-c2csc(NC(=O)c3cc(NC(=O)[C@H]4[C@H](c5cc(Cl)cc(Cl)c5)C4(Cl)Cl)ccc3Cl)n2)cc1 (relative stereo) [PF136, trans-2-Chloro-5-(2,2-dichloro-3-(3,5-dichlorophenyl)cyclopropane-1-carboxamido)-N-(4-(p-tolyl)thiazol-2-yl)benzamide] | 50 to 100% | 50 to 100% | – | –
O=C(Nc1cc(C(F)(F)F)[nH]n1)c1cc(NC(=O)[C@H]2[C@H](c3cc(Cl)cc(Cl)c3)C2(Cl)Cl)ccc1Cl (relative stereo) [PF138, trans-2-Chloro-5-(2,2-dichloro-3-(3,5-dichlorophenyl)cyclopropane-1-carboxamido)-N-(5-(trifluoromethyl)-1H-pyrazol-3-yl)benzamide] | 50 to 100% | 50 to 100% | – | –
COc1c(Cl)cc([C@H]2[C@H](C(=O)Nc3ccc(Cl)c(C(=O)Nc4ccc(F)cc4)c3)C2(Cl)Cl)cc1Cl (relative stereo) [PF156, trans-2-Chloro-5-(2,2-dichloro-3-(3,5-dichloro-4-methoxyphenyl)cyclopropane-1-carboxamido)-N-(4-fluorophenyl)benzamide] | 50 to 100% | 50 to 100% | – | –
O=C(Nc1ccc(NC(=O)C2(C(F)(F)F)CC2)cc1)c1cc(NC(=O)[C@H]2[C@H](c3cc(Cl)cc(Cl)c3)C2(Cl)Cl)ccc1Cl (relative stereo) [PF162, trans-2-Chloro-5-(2,2-dichloro-3-(3,5-dichlorophenyl)cyclopropane-1-carboxamido)-N-(4-(1-(trifluoromethyl)cyclopropane-1-carboxamido)phenyl)benzamide] | 50 to 100% | 50 to 100% | – | –
CC(C)(C)CC(=O)Nc1ccc(NC(=O)c2cc(NC(=O)[C@H]3[C@H](c4cc(Cl)cc(Cl)c4)C3(Cl)Cl)ccc2Cl)cc1 (relative stereo) [PF164, trans-2-Chloro-5-(2,2-dichloro-3-(3,5-dichlorophenyl)cyclopropane-1-carboxamido)-N-(4-(3,3-dimethylbutanamido)phenyl)benzamide] | 50 to 100% | 50 to 100% | – | –
O=C(Nc1c(F)cccc1F)c1cc(NC(=O)C2C(c3cc(Cl)cc(Cl)c3)C2(Cl)Br)ccc1Cl (stereo not drawn) [F168, 5-(trans)-2-Bromo-2-chloro-3-(3,5-dichlorophenyl)cyclopropane-1-carboxamido)-2-chloro-N-(2,6-difluorophenyl)benzamide] | – | – | 50 to 100% | 50 to 100%
Cc1cc(NC(=O)OC(C)(C)C)ccc1NC(=O)c1cc(NC(=O)[C@H]2[C@H](c3cc(Cl)c(Cl)c(Cl)c3)C2(Cl)Cl)ccc1Cl [F278, tert-Butyl (4-(2-chloro-5-((1R,3R)-2,2-dichloro-3-(3,4,5-trichlorophenyl)cyclopropane-1-carboxamido)benzamido)-3-methylphenyl)carbamate] | – | – | 50 to 100% | 50 to 100%
O=C(Nc1cc(F)cc([N+](=O)[O-])c1)c1cc(NC(=O)[C@H]2[C@H](c3ccc(Cl)c(Cl)c3)C2(Cl)Cl)ccc1Cl [F416, 2-Chloro-5-((1R,3R)-2,2-dichloro-3-(3,4-dichlorophenyl)cyclopropane-1-carboxamido)-N-(3-fluoro-5-nitrophenyl)benzamide] | 50 to 100% | 50 to 100% | – | –
O=C(Nc1nc2cc(Cl)ccc2o1)c1cc(NC(=O)C2C(c3cc(Cl)cc(Cl)c3)C2(Cl)Cl)ccc1Cl (stereo not drawn) [F448, 2-Chloro-N-(5-chlorobenzo[d]oxazol-2-yl)-5-(trans)-2,2-dichloro-3-(3,5-dichlorophenyl)cyclopropane-1-carboxamido)benzamide] | 50 to 100% | 50 to 100% | – | –
O=C(Nc1nc2ccc(F)cc2[nH]1)c1cc(NC(=O)C2C(c3cc(Cl)cc(Cl)c3)C2(Cl)Cl)ccc1Cl (stereo not drawn) [F451, 2-Chloro-5-(trans)-2,2-dichloro-3-(3,5-dichlorophenyl)cyclopropane-1-carboxamido)-N-(6-fluoro-1H-benzo[d]imidazol-2-yl)benzamide] | 50 to 100% | 50 to 100% | – | –
Cc1cc(NS(C)(=O)=O)ccc1NC(=O)c1cc(NC(=O)C2C(c3cc(Cl)cc(Cl)c3)C2(Cl)Cl)ccc1Cl (stereo not drawn) [F487, 2-chloro-5-(trans)-2,2-dichloro-3-(3,5-dichlorophenyl)cyclopropane-1-carboxamido)-N-(2-methyl-4-(methylsulfonamido)phenyl)benzamide] | 50 to 100% | 50 to 100% | – | –
CC(C)(C)OC(=O)N(C(=O)OC(C)(C)C)c1c(F)ccc(NC(=O)c2cc(NC(=O)[C@H]3[C@H](c4ccc(Cl)c(Cl)c4)C3(Cl)Cl)ccc2Cl)c1F [F500, tert-Butyl-N-((tert-butoxy)carbonyl)-N-(3-(2-chloro-5-((1R,3R)-2,2-dichloro-3-(3,4-dichlorophenyl)cyclopropane-1-carboxamido)benzamido)-2,6-difluorophenyl)carbamate] | 0 to 50% | 50 to 100% | – | –
CC(C)(C)OC(=O)N(C(=O)OC(C)(C)C)c1c(F)ccc(NC(=O)c2cc(NC(=O)[C@H]3[C@H](c4ccc(F)c(Cl)c4)C3(Cl)Cl)ccc2Cl)c1F [F503, tert-Butyl-N-((tert-butoxy)carbonyl)-N-(3-(2-chloro-5-((1R,3R)-2,2-dichloro-3-(3-chloro-4-fluorophenyl)cyclopropane-1-carboxamido)benzamido)-2,6-difluorophenyl)carbamate] | 50 to 100% | 50 to 100% | – | –
